Test results from article PMC10597491 (PLOS ONE, 2023).
Bridge positions count the residues as written; N and C are the ends. Ends that are not written are not given here.

Columns and labels:
[1] = molecular target: T1, human IL-7Rα ECD (Homo sapiens, UniProt P16871); experiment: Competition binding ELISA, human IL-7Rα ECD; settings: immobilized IL-7Rα-(His)6 ECD; tracer biotinylated MDK1248 pre-complexed with Neutravidin-HRP; 4°C; valency-sensitive format
T1 construct: IL-7Rα(aa 21–236)-His6, Sino Biological Cat# 10975-H08H; His6 (C); purchased Sino Biological 10975-H08H
T1 sequence (P16871 21-236): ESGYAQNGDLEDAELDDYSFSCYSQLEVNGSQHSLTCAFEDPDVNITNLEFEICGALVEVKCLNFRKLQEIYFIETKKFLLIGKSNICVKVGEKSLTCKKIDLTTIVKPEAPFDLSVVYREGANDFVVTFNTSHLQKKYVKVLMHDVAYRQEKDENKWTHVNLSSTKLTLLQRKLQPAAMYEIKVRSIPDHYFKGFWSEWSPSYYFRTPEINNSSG
From the text: (§1) (A, B) Determination of IC50 values in a competition ELISA for compound binding to human and cyno IL-7Rα and γc. The assay format is IL-7Rα-(His)6-tagged ECD or Fc-γc ECD immobilized on 96-well plates. Tracers are C-terminal biotinylated forms of the reference IL-7Rα and γc peptide ligands, each pre-complexed with Neutravidin-HRP (NA-HRP). (C, D) Label-free measurement of the equilibrium dissociation constant (KD) for peptide binding to IL-7Rα and γc extracellular domains with peptides was performed by biolayer interferometry as detailed in methods. Red lines depict 1:1 binding fit from Gator™ software. Blue lines represent individual BLI sensogram data taken every 0.1 seconds.
(§2) Binding was determined using a competition binding ELISA. Microtiter plates (Immulon 4HBX flat bottom 96-well) were coated with 50 μL of […] human ECDs: IL-7Rα(aa 21–236)-His6, Sino Biological Cat# 10975-H08H; cynomolgus IL-7Rα(aa 21–235)-His6, Sino Biological Cat# 90332-C08H; human IL-2Rα(aa 23–254)-Fc, Acro Cat# ILG-H5256; cynomolgus IL-2Rα(aa 23–254)-Fc, made in-house, in PBS overnight at 4°C. […] Plates were washed with cold wash buffer, and bound tracer was detected using TMB One Component HRP substrate and Stop Solution (Surmodics Cat# TMBW-1000-01 and LSTP-0100-01). Absorbance at 450 nm was read using Agilent BioTek Synergy HTX Multimode Reader.

[2] = molecular target: T2, human γc ECD (Homo sapiens, UniProt P31785); experiment: Competition binding ELISA, human γc ECD; settings: immobilized Fc-γc ECD; tracer biotinylated MDK1188 pre-complexed with Neutravidin-HRP; 4°C
T2 construct: human IL-2Rα(aa 23–254)-Fc, Acro Cat# ILG-H5256; purchased Acro ILG-H5256
T2 sequence (P31785 23-254): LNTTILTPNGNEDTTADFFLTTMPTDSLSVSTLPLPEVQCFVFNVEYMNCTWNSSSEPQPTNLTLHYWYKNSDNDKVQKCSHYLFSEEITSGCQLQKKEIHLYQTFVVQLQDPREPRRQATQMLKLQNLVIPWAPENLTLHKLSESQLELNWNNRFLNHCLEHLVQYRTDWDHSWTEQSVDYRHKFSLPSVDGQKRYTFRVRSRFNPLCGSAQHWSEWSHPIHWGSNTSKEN
From the text: as §1, §2

[3] = molecular target: T3, IL-2βγc receptor (Homo sapiens, UniProt P31785); experiment: IL-2-induced pSTAT5 in TF-1 cells expressing IL-2/15Rβ; type: cell-based
T3 construct: pcDNA3.1 expression vector encoding full-length IL-2Rβ, IL-7Rα, IL-9Rα, or IL-21Rα; TF-1 cells naturally express γc and IL-4Rα; expressed in transfected cells
T3 sequence (P31785 23-369): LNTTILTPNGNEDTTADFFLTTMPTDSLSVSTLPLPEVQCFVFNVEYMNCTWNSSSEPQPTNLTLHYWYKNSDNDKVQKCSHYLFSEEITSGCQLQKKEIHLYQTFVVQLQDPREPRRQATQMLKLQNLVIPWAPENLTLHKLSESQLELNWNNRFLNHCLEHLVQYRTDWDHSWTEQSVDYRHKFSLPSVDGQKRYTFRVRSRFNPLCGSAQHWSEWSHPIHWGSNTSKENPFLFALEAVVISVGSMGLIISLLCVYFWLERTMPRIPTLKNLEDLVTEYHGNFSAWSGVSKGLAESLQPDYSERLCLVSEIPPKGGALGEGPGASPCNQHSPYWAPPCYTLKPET
Experimental: Cells were deprived of growth factors by overnight incubation at 5×10^5 cells/mL in starvation medium (RPMI 1640 + 4.5 g/L glucose + 0.2% FBS + 2 mM L-glutamine + 1 mM NaPyr + 10 mM HEPES + 0.5x penicillin-streptomycin with no cytokine supplement) in T75 flasks. For assays, cells were plated in 96-well V-bottom plates at 2×10^5 cells/well. Three-fold serial dilutions in starvation medium of the test compounds or cytokine were added to the cells and incubated for 30 min at 37°C. Following incubation, cell extracts were prepared by adding a mixture of 10x Cell Lysis Buffer (Cell Signaling Technology Cat# 9803) and 100x HALT Phosphatase and Protease Inhibitor Cocktail (Thermo Fisher Cat# 78442) directly to the wells. The plates were agitated at 25°C for 5 min to prepare cell extracts for immediate use or to be stored at -80°C until assay. Detection of pSTAT5 was performed using a PathScan® Phospho-Stat5 (pTyr694) Sandwich ELISA Kit (Cell Signaling Technology Cat# 7113). Detection of pSTAT6 was performed using a PathScan® Phospho-Stat6 (pTyr641) Sandwich ELISA Kit (Cell Signaling Technology Cat# 7275). Detection of pSTAT3 was performed using a PathScan® Phospho-Stat3 (pTyr705) Sandwich ELISA Kit (Cell Signaling Technology Cat# 7300). Cell lysates were added to pre-coated ELISA wells and incubated at 4°C overnight. […]

IC50 [1]: 340 nM | IC50 [2]: 57 nM | IC50 [3]: ~5000 nM
Substance: Ac-GWGIPWCTLDPGSLQCAWLGKHGGGGSGGVVCQDWEGVELCWQGG (disulfide 7-16, 32-41) [MDK1472]
